{"source": "PubChem BioAssay (NCI)", "experiment_in_all_cases": "NCI anticancer screen, dose series, 48 h", "key": {"786-0 renal": {"system": "786-0 renal"}, "ACHN renal": {"system": "ACHN renal"}, "BT-549 breast": {"system": "BT-549 breast"}, "CAKI-1 renal": {"system": "CAKI-1 renal"}, "CCRF-CEM leukemia": {"system": "CCRF-CEM leukemia"}, "COLO 205 colon": {"system": "COLO 205 colon"}, "DU-145 prostate": {"system": "DU-145 prostate"}, "HCC-2998 colon": {"system": "HCC-2998 colon"}, "HCT-15 colon": {"system": "HCT-15 colon"}, "HL-60(TB) leukemia": {"system": "HL-60(TB) leukemia"}, "HOP-92 NSCLC": {"system": "HOP-92 NSCLC"}, "HS 578T breast": {"system": "HS 578T breast"}, "HT29 colon": {"system": "HT29 colon"}, "IGROV1 ovarian": {"system": "IGROV1 ovarian"}, "KM12 colon": {"system": "KM12 colon"}, "LOX IMVI melanoma": {"system": "LOX IMVI melanoma"}, "M14 melanoma": {"system": "M14 melanoma"}, "MALME-3M melanoma": {"system": "MALME-3M melanoma"}, "MDA-MB-231 breast": {"system": "MDA-MB-231 breast"}, "MDA-MB-435": {"system": "MDA-MB-435"}, "MDA-MB-468 breast": {"system": "MDA-MB-468 breast"}, "NCI-H226 lung": {"system": "NCI-H226 lung"}, "NCI-H23 lung": {"system": "NCI-H23 lung"}, "NCI-H460 lung": {"system": "NCI-H460 lung"}, "OVCAR-3 ovarian": {"system": "OVCAR-3 ovarian"}, "OVCAR-4 ovarian": {"system": "OVCAR-4 ovarian"}, "OVCAR-5 ovarian": {"system": "OVCAR-5 ovarian"}, "OVCAR-8 ovarian": {"system": "OVCAR-8 ovarian"}, "PC-3 prostate": {"system": "PC-3 prostate"}, "RPMI-8226 leukemia": {"system": "RPMI-8226 leukemia"}, "SF-539 CNS": {"system": "SF-539 CNS"}, "SK-MEL-2 melanoma": {"system": "SK-MEL-2 melanoma"}, "SK-MEL-28 melanoma": {"system": "SK-MEL-28 melanoma"}, "SK-MEL-5 melanoma": {"system": "SK-MEL-5 melanoma"}, "SK-OV-3 ovarian": {"system": "SK-OV-3 ovarian"}, "SN12C renal": {"system": "SN12C renal"}, "SR leukemia": {"system": "SR leukemia"}, "SW-620 colon": {"system": "SW-620 colon"}, "T-47D breast": {"system": "T-47D breast"}, "TK-10 renal": {"system": "TK-10 renal"}, "UACC-257 melanoma": {"system": "UACC-257 melanoma"}, "UACC-62 melanoma": {"system": "UACC-62 melanoma"}, "UO-31 renal": {"system": "UO-31 renal"}}, "note": "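Assay format: 96-well plates, 48-hour exposure. Here, GI50 denotes the concentration required for 50% inhibition of growth. TGI denotes the concentration required for complete inhibition of growth.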", "data": [{"smiles": "CN(C)CCCNC(=S)Nc1ccc(/C=C/c2ccc(Cl)cc2)cc1", "values": [{"measurement": "GI50", "setting": "786-0 renal", "result": 1620, "unit": "nM"}, {"measurement": "TGI", "setting": "786-0 renal", "result": 3360, "unit": "nM"}, {"measurement": "GI50", "setting": "ACHN renal", "result": 1780, "unit": "nM"}, {"measurement": "TGI", "setting": "ACHN renal", "result": 3190, "unit": "nM"}, {"measurement": "GI50", "setting": "BT-549 breast", "result": 2890, "unit": "nM"}, {"measurement": "TGI", "setting": "BT-549 breast", "result": 8870, "unit": "nM"}, {"measurement": "GI50", "setting": "CAKI-1 renal", "result": 1540, "unit": "nM"}, {"measurement": "TGI", "setting": "CAKI-1 renal", "result": 2960, "unit": "nM"}, {"measurement": "GI50", "setting": "CCRF-CEM leukemia", "result": 1630, "unit": "nM"}, {"measurement": "TGI", "setting": "CCRF-CEM leukemia", "result": 3430, "unit": "nM"}, {"measurement": "GI50", "setting": "COLO 205 colon", "result": 1880, "unit": "nM"}, {"measurement": "TGI", "setting": "COLO 205 colon", "result": 3640, "unit": "nM"}, {"measurement": "GI50", "setting": "DU-145 prostate", "result": 1750, "unit": "nM"}, {"measurement": "TGI", "setting": "DU-145 prostate", "result": 3330, "unit": "nM"}, {"measurement": "GI50", "setting": "HCC-2998 colon", "result": 1640, "unit": "nM"}, {"measurement": "TGI", "setting": "HCC-2998 colon", "result": 3140, "unit": "nM"}, {"measurement": "GI50", "setting": "HCT-15 colon", "result": 1530, "unit": "nM"}, {"measurement": "TGI", "setting": "HCT-15 colon", "result": 3030, "unit": "nM"}, {"measurement": "GI50", "setting": "HL-60(TB) leukemia", "result": 1670, "unit": "nM"}, {"measurement": "TGI", "setting": "HL-60(TB) leukemia", "result": 3930, "unit": "nM"}, {"measurement": "GI50", "setting": "HOP-92 NSCLC", "result": 1350, "unit": "nM"}, {"measurement": "TGI", "setting": "HOP-92 NSCLC", "result": 2990, "unit": "nM"}, {"measurement": "GI50", "setting": "HS 578T breast", "result": 1860, "unit": "nM"}, {"measurement": "TGI", "setting": "HS 578T breast", "result": 4520, "unit": "nM"}, {"measurement": "GI50", "setting": "HT29 colon", "result": 2140, "unit": "nM"}, {"measurement": "TGI", "setting": "HT29 colon", "result": 4720, "unit": "nM"}, {"measurement": "GI50", "setting": "IGROV1 ovarian", "result": 1780, "unit": "nM"}, {"measurement": "TGI", "setting": "IGROV1 ovarian", "result": 3310, "unit": "nM"}, {"measurement": "GI50", "setting": "KM12 colon", "result": 1820, "unit": "nM"}, {"measurement": "TGI", "setting": "KM12 colon", "result": 3400, "unit": "nM"}, {"measurement": "GI50", "setting": "LOX IMVI melanoma", "result": 1640, "unit": "nM"}, {"measurement": "TGI", "setting": "LOX IMVI melanoma", "result": 3090, "unit": "nM"}, {"measurement": "GI50", "setting": "M14 melanoma", "result": 1770, "unit": "nM"}, {"measurement": "TGI", "setting": "M14 melanoma", "result": 3620, "unit": "nM"}, {"measurement": "GI50", "setting": "MALME-3M melanoma", "result": 1750, "unit": "nM"}, {"measurement": "TGI", "setting": "MALME-3M melanoma", "result": 3140, "unit": "nM"}, {"measurement": "GI50", "setting": "MDA-MB-231 breast", "result": 1620, "unit": "nM"}, {"measurement": "TGI", "setting": "MDA-MB-231 breast", "result": 3030, "unit": "nM"}, {"measurement": "GI50", "setting": "MDA-MB-435", "result": 1580, "unit": "nM"}, {"measurement": "TGI", "setting": "MDA-MB-435", "result": 3060, "unit": "nM"}, {"measurement": "GI50", "setting": "MDA-MB-468 breast", "result": 1640, "unit": "nM"}, {"measurement": "TGI", "setting": "MDA-MB-468 breast", "result": 3070, "unit": "nM"}, {"measurement": "GI50", "setting": "NCI-H226 lung", "result": 8410, "unit": "nM"}, {"measurement": "TGI", "setting": "NCI-H226 lung", "result": 38200, "unit": "nM"}, {"measurement": "GI50", "setting": "NCI-H23 lung", "result": 2020, "unit": "nM"}, {"measurement": "TGI", "setting": "NCI-H23 lung", "result": 4440, "unit": "nM"}, {"measurement": "GI50", "setting": "NCI-H460 lung", "result": 1540, "unit": "nM"}, {"measurement": "TGI", "setting": "NCI-H460 lung", "result": 3010, "unit": "nM"}, {"measurement": "GI50", "setting": "OVCAR-3 ovarian", "result": 1440, "unit": "nM"}, {"measurement": "TGI", "setting": "OVCAR-3 ovarian", "result": 3110, "unit": "nM"}, {"measurement": "GI50", "setting": "OVCAR-4 ovarian", "result": 1920, "unit": "nM"}, {"measurement": "TGI", "setting": "OVCAR-4 ovarian", "result": 4350, "unit": "nM"}, {"measurement": "GI50", "setting": "OVCAR-5 ovarian", "result": 1610, "unit": "nM"}, {"measurement": "TGI", "setting": "OVCAR-5 ovarian", "result": 3090, "unit": "nM"}, {"measurement": "GI50", "setting": "OVCAR-8 ovarian", "result": 1980, "unit": "nM"}, {"measurement": "TGI", "setting": "OVCAR-8 ovarian", "result": 4100, "unit": "nM"}, {"measurement": "GI50", "setting": "PC-3 prostate", "result": 1640, "unit": "nM"}, {"measurement": "TGI", "setting": "PC-3 prostate", "result": 3240, "unit": "nM"}, {"measurement": "GI50", "setting": "RPMI-8226 leukemia", "result": 2550, "unit": "nM"}, {"measurement": "TGI", "setting": "RPMI-8226 leukemia", "result": 7330, "unit": "nM"}, {"measurement": "GI50", "setting": "SF-539 CNS", "result": 1680, "unit": "nM"}, {"measurement": "TGI", "setting": "SF-539 CNS", "result": 3050, "unit": "nM"}, {"measurement": "GI50", "setting": "SK-MEL-2 melanoma", "result": 1870, "unit": "nM"}, {"measurement": "TGI", "setting": "SK-MEL-2 melanoma", "result": 3570, "unit": "nM"}, {"measurement": "GI50", "setting": "SK-MEL-28 melanoma", "result": 1790, "unit": "nM"}, {"measurement": "TGI", "setting": "SK-MEL-28 melanoma", "result": 3200, "unit": "nM"}, {"measurement": "GI50", "setting": "SK-MEL-5 melanoma", "result": 1720, "unit": "nM"}, {"measurement": "TGI", "setting": "SK-MEL-5 melanoma", "result": 3090, "unit": "nM"}, {"measurement": "GI50", "setting": "SK-OV-3 ovarian", "result": 2030, "unit": "nM"}, {"measurement": "TGI", "setting": "SK-OV-3 ovarian", "result": 4160, "unit": "nM"}, {"measurement": "GI50", "setting": "SN12C renal", "result": 1680, "unit": "nM"}, {"measurement": "TGI", "setting": "SN12C renal", "result": 3130, "unit": "nM"}, {"measurement": "GI50", "setting": "SR leukemia", "result": 1940, "unit": "nM"}, {"measurement": "TGI", "setting": "SR leukemia", "result": 5100, "unit": "nM"}, {"measurement": "GI50", "setting": "SW-620 colon", "result": 1670, "unit": "nM"}, {"measurement": "TGI", "setting": "SW-620 colon", "result": 3140, "unit": "nM"}, {"measurement": "GI50", "setting": "T-47D breast", "result": 1880, "unit": "nM"}, {"measurement": "TGI", "setting": "T-47D breast", "result": 4100, "unit": "nM"}, {"measurement": "GI50", "setting": "TK-10 renal", "result": 1870, "unit": "nM"}, {"measurement": "TGI", "setting": "TK-10 renal", "result": 3560, "unit": "nM"}, {"measurement": "GI50", "setting": "UACC-257 melanoma", "result": 1640, "unit": "nM"}, {"measurement": "TGI", "setting": "UACC-257 melanoma", "result": 3240, "unit": "nM"}, {"measurement": "GI50", "setting": "UACC-62 melanoma", "result": 1750, "unit": "nM"}, {"measurement": "TGI", "setting": "UACC-62 melanoma", "result": 3170, "unit": "nM"}, {"measurement": "GI50", "setting": "UO-31 renal", "result": 1580, "unit": "nM"}, {"measurement": "TGI", "setting": "UO-31 renal", "result": 2940, "unit": "nM"}]}]}
